According to ChEMBL document CHEMBL4715874, “In Vivo Screening of Xanthones from Garcinia oligantha Identified Oliganthin H as a Novel Natural Inhibitor of Convulsions” (J Nat Prod, 2020):
Calls of active or inactive are those of the source. The rule behind the calls is not given here.

Key:
[1] = Effect of PYYA mRNA expression in AB zebra fish larvae at 25 uM after 6 hrs by qRT-PCR analysis (reference value: 1 +/- 0.13%); format: ADME, Danio rerio; settings: zebrafish
Danio rerio [2] = organism: Danio rerio; assay: Anticonvulsant activity in AB zebra fish larvae assessed as reduction in PTZ-induced convulsant behavior by measuring lowest observed effect concentration pretreated for 6 hrs followed by PTZ-stimulation and measured every 5 mins for 1 hr; format: functional; settings: time 7 hrs
Danio rerio [3] = organism: Danio rerio; assay: Anticonvulsant activity in AB zebra fish larvae assessed as PTZ-induced seizure activity at 25 uM pretreated for 6 hrs followed by PTZ-stimulation and measured every 5 mins for 30 mins (reference value: 14.13 +/- 0.004 mm); format: functional; settings: time 6.5 hrs
[4] = Effect of ABAT mRNA expression in AB zebra fish larvae at 25 uM after 6 hrs by qRT-PCR analysis (reference value: 1 +/- 0.11%); format: ADME, Danio rerio; settings: zebrafish
Danio rerio [5] = organism: Danio rerio; assay: Anticonvulsant activity in AB zebra fish larvae assessed as PTZ-induced c-fos mRNA expression at 25 uM pretreated for 6 hrs followed by PTZ-stimulation and measured after 30 mins by qRT-PCR analysis (reference value: 8.91 +/- 0.54%); format: functional; settings: time 6.5 hrs
[6] = Effect of PRKACAB mRNA expression in AB zebra fish larvae at 25 uM after 6 hrs by qRT-PCR analysis (reference value: 1 +/- 0.03%); format: ADME, Danio rerio; settings: zebrafish
[7] = Neurotoxicity in AB zebra fish larvae at 100 uM after 6 hrs; format: toxicity, Danio rerio; settings: zebrafish
Danio rerio [8] = organism: Danio rerio; assay: Anticonvulsant activity in AB zebra fish larvae assessed as PTZ-induced seizure duration time at 12.5 uM pretreated for 6 hrs followed by PTZ-stimulation and measured every 5 mins for 30 mins (reference value: 0.32 +/- 0.31 s); format: functional; settings: time 6.5 hrs
[9] = Effect of gabra1 mRNA expression in AB zebra fish larvae at 25 uM after 6 hrs by qRT-PCR analysis (reference value: 1 +/- 0.11%); format: ADME, Danio rerio; settings: zebrafish
Danio rerio [10] = organism: Danio rerio; assay: Anticonvulsant activity in AB zebra fish larvae assessed as reduction in PTZ-induced convulsant behavior by measuring swimming distance at 25 uM pretreated for 6 hrs followed by PTZ-stimulation and measured every 5 mins for 1 hr relative to control; format: functional; parameters: scale not given: the % may be the effect or the level left; settings: time 7 hrs
Danio rerio [11] = organism: Danio rerio; assay: Anticonvulsant activity in AB zebra fish larvae assessed as PTZ-induced seizure duration time at 25 uM pretreated for 6 hrs followed by PTZ-stimulation and measured every 5 mins for 30 mins (reference value: 0.32 +/- 0.31 s); format: functional; settings: time 6.5 hrs
[12] = Toxicity in AB zebra fish larvae assessed as maximum tolerated concentration after 6 hrs; parameters: species or system Danio rerio; settings: zebrafish, read-out: MTC
[13] = Effect of glud1a mRNA expression in AB zebra fish larvae at 25 uM after 6 hrs by qRT-PCR analysis (reference value: 1 +/- 0.16%); format: ADME, Danio rerio; settings: zebrafish
Danio rerio [14] = organism: Danio rerio; assay: Anticonvulsant activity in AB zebra fish larvae assessed as PTZ-induced GLSA mRNA expression at 25 uM pretreated for 6 hrs followed by PTZ-stimulation and measured after 30 mins by qRT-PCR analysis (reference value: 3.4 +/- 0.5%); format: functional; settings: time 6.5 hrs
Danio rerio [15] = organism: Danio rerio; assay: Anticonvulsant activity in AB zebra fish larvae assessed as PTZ-induced BDNF mRNA expression at 25 uM pretreated for 6 hrs followed by PTZ-stimulation and measured after 30 mins by qRT-PCR analysis (reference value: 11.41 +/- 1.09%); format: functional; settings: time 6.5 hrs
[16] = Ratio of MTC for toxicity in AB zebra fish larvae to lowest observed effect concentration for Anticonvulsant activity in AB zebra fish larvae assessed as reduction in PTZ-induced convulsant behavior; parameters: species or system Danio rerio
[17] = Effect of npas4a mRNA expression in AB zebra fish larvae at 25 uM after 6 hrs by qRT-PCR analysis (reference value: 1.04 +/- 0.41%); format: ADME, Danio rerio; settings: zebrafish
Danio rerio [18] = organism: Danio rerio; assay: Anticonvulsant activity in AB zebra fish larvae assessed as reduction in PTZ-induced convulsant behavior by measuring swimming distance at 6.2 uM pretreated for 6 hrs followed by PTZ-stimulation and measured every 5 mins for 1 hr; format: functional, organism-based; settings: time 7.0 hrs
[19] = Neurotoxicity in AB zebra fish larvae assessed as increase in total swimming distance at > 12.5 uM after 6 hrs; format: toxicity, Danio rerio; settings: zebrafish
Danio rerio [20] = organism: Danio rerio; assay: Anticonvulsant activity in AB zebra fish larvae assessed as PTZ-induced PYYA mRNA expression at 25 uM pretreated for 6 hrs followed by PTZ-stimulation and measured after 30 mins by qRT-PCR analysis (reference value: 18.53 +/- 4.32%); format: functional; settings: time 6.5 hrs
[21] = Toxicity in AB zebra fish larvae assessed as mortality at 100 uM after 6 hrs; parameters: species or system Danio rerio; settings: zebrafish
[22] = Effect of c-fos mRNA expression in AB zebra fish larvae at 25 uM after 6 hrs by qRT-PCR analysis (reference value: 1.06 +/- 0.52%); format: ADME, Danio rerio; settings: zebrafish
Danio rerio [23] = organism: Danio rerio; assay: Anticonvulsant activity in AB zebra fish larvae assessed as PTZ-induced pvalb5 mRNA expression at 25 uM pretreated for 6 hrs followed by PTZ-stimulation and measured after 30 mins by qRT-PCR analysis (reference value: 0.59 +/- 0.52%); format: functional; settings: time 6.5 hrs
[24] = Effect of GLULA mRNA expression in AB zebra fish larvae at 25 uM after 6 hrs by qRT-PCR analysis (reference value: 1.02 +/- 0.29%); format: ADME, Danio rerio; settings: zebrafish
Danio rerio [25] = organism: Danio rerio; assay: Anticonvulsant activity in AB zebra fish larvae assessed as PTZ-induced GLULA mRNA expression at 25 uM pretreated for 6 hrs followed by PTZ-stimulation and measured after 30 mins by qRT-PCR analysis (reference value: 5.44 +/- 0.55%); format: functional; settings: time 6.5 hrs

CC(C)=CCC/C(C)=C/C[C@@]1(CC=C(C)C)C(=O)C(O)=C(O)c2oc3c4c(cc(O)c3c(=O)c21)OC(C)(C)C=C4
Activity [1]: 2.27% | Activity (Danio rerio [2]): 12.5 µM | Activity (Danio rerio [3]): 557.9 mm | Activity [4]: 0.7% | Activity (Danio rerio [5]): 3.31% | Activity [6]: 0.9% | Activity [7]: Toxic | Time (Danio rerio [8]): 8.18 s | Activity [9]: 1.77% | Activity (Danio rerio [10]): 50% | Time (Danio rerio [11]): 7.32 s | MNTC at 6 h [12]: 50 µM | Activity [13]: 1% | Activity (Danio rerio [14]): 0.92% | Activity (Danio rerio [15]): 1.32% | Ratio [16]: 4 | Activity [17]: 1.95% | Activity (Danio rerio [18]): inactive | Activity [19]: Toxic | Activity (Danio rerio [20]): 1.09% | Activity [21]: Toxic | Activity [22]: 1.67% | Activity (Danio rerio [23]): 0.85% | Activity [24]: 0.76% | Activity (Danio rerio [25]): 1.61%
